Test results taken from ChEMBL document CHEMBL4507276 (2021).

Legend:
[1] = molecular target: Serine/threonine-protein kinase TNNI3K (Homo sapiens) (UniProt Q59H18); conditions: Compound concentration 1000.0 nM
[2] = molecular target: Alpha-2C adrenergic receptor (Homo sapiens) (UniProt P18825); assay: ALPHA2CH_ANTAG Cerep selectivity data (BI); conditions: filed as antagonist, Compound concentration 20.0 uM
[3] = molecular target: Glutamate receptor ionotropic, AMPA (Rattus norvegicus) (UniProt P19491+P19492+P19493+P19490); assay: AMPA/R Cerep selectivity data (BI); type: protein-complex assay; conditions: Compound concentration 20.0 uM
[4] = molecular target: Histamine H3 receptor (Homo sapiens) (UniProt Q9Y5N1); assay: H3/NAMEH_H Cerep selectivity data (BI); conditions: filed as antagonist, Compound concentration 20.0 uM
[5] = molecular target: Cysteinyl leukotriene receptor 1 (Homo sapiens) (UniProt Q9Y271); assay: LTD4/H Cerep selectivity data (BI); conditions: Compound concentration 20.0 uM
[6] = molecular target: Melanocyte-stimulating hormone receptor (Mus musculus) (UniProt Q01727); assay: MC1_AGON Cerep selectivity data (BI); conditions: filed as agonist, Compound concentration 20.0 uM
[7] = molecular target: Substance-K receptor (Homo sapiens) (UniProt P21452); assay: NK2/H Cerep selectivity data (BI); conditions: Compound concentration 20.0 uM
[8] = molecular target: Glutamate receptor ionotropic, NMDA 2A (Rattus norvegicus) (UniProt Q00959); assay: NMDAPHSI/R Eurofins-Panlabs selectivity data (BI); conditions: Compound concentration 10.0 uM
[9] = molecular target: Neuropeptide Y receptor type 1 (Homo sapiens) (UniProt P25929); assay: Y1/HU Eurofins-Panlabs selectivity data (BI); conditions: Compound concentration 10.0 uM
[10] = molecular target: Calcium/calmodulin-dependent protein kinase type II subunit delta (Homo sapiens) (UniProt Q13557); assay: CAMK2D Invitrogen selectivity data (BI); conditions: Compound concentration 3.0 uM
[11] = molecular target: Serine/threonine-protein kinase Chk2 (Homo sapiens) (UniProt O96017); assay: CHEK2 Invitrogen selectivity data (BI); conditions: Compound concentration 3.0 uM
[12] = molecular target: G protein-coupled receptor kinase 6 (Homo sapiens) (UniProt P43250); assay: GRK6 Invitrogen selectivity data (BI); conditions: Compound concentration 3.0 uM
[13] = molecular target: LIM domain kinase 1 (Homo sapiens) (UniProt P53667); assay: LIMK1 Invitrogen selectivity data (BI); conditions: Compound concentration 3.0 uM
[14] = molecular target: MAP kinase-activated protein kinase 3 (Homo sapiens) (UniProt Q16644); assay: MAPKAPK3 Invitrogen selectivity data (BI); conditions: Compound concentration 3.0 uM
[15] = molecular target: PI3-kinase p110-delta/p85-alpha (Homo sapiens) (UniProt P27986+O00329); assay: PIK3CDPIK3R1 Invitrogen selectivity data (BI); type: protein-complex assay; conditions: Compound concentration 3.0 uM
[16] = molecular target: Rho-associated protein kinase 2 (Homo sapiens) (UniProt O75116); assay: ROCK2 Invitrogen selectivity data (BI); conditions: Compound concentration 3.0 uM
[17] = molecular target: SRSF protein kinase 3 (Homo sapiens) (UniProt Q9UPE1); assay: STK23 Invitrogen selectivity data (BI); conditions: Compound concentration 3.0 uM
[18] = molecular target: T1, Serine/threonine-protein kinase TAO2 (Homo sapiens) (UniProt Q9UL54); assay: TAOK2 Invitrogen selectivity data (BI); conditions: Compound concentration 3.0 uM
T1 sequence (whole entry): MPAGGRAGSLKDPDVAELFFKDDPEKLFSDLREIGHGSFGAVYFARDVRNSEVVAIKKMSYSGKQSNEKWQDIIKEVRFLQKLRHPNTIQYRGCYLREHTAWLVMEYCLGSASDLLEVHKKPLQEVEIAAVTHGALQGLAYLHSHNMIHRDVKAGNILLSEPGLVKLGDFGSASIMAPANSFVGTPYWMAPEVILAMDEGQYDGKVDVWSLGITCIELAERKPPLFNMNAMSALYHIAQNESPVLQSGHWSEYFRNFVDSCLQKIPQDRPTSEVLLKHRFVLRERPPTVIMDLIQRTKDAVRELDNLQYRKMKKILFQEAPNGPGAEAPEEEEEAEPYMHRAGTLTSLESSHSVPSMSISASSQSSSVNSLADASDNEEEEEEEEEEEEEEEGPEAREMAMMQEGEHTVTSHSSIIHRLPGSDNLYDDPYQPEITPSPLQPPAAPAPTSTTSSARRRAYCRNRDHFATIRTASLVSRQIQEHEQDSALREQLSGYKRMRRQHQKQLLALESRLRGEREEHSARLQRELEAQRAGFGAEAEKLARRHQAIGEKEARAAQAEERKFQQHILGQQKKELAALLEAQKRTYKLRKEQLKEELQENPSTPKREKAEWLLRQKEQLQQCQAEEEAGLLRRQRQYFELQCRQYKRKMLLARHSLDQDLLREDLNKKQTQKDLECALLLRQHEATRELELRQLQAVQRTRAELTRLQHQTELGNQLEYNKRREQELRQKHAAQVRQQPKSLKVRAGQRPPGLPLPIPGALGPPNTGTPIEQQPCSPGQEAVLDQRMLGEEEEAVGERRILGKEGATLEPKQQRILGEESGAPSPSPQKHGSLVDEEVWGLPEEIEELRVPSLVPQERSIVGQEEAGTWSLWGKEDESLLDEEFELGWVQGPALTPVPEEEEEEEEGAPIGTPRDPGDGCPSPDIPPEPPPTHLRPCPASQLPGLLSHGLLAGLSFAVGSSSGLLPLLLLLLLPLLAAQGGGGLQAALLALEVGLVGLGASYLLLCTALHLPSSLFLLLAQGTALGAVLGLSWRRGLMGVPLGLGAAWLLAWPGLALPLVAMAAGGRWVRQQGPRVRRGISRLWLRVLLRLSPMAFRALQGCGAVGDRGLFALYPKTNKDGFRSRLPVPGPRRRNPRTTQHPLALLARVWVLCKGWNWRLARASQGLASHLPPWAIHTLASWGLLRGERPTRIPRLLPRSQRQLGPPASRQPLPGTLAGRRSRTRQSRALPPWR

[19] = molecular target: Activated CDC42 kinase 1 (Homo sapiens) (UniProt Q07912); assay: TNK2 Invitrogen selectivity data (BI); conditions: Compound concentration 3.0 uM
[20] = molecular target: Alpha-1A adrenergic receptor (Rattus norvegicus) (UniProt P43140); assay: ALPHA1A/R Eurofins-Panlabs selectivity data (BI); conditions: Compound concentration 10.0 uM

Measured: residual activity

Sequence of MAP kinase-activated protein kinase 3 (Homo sapiens) (Q16644 whole entry, looked up): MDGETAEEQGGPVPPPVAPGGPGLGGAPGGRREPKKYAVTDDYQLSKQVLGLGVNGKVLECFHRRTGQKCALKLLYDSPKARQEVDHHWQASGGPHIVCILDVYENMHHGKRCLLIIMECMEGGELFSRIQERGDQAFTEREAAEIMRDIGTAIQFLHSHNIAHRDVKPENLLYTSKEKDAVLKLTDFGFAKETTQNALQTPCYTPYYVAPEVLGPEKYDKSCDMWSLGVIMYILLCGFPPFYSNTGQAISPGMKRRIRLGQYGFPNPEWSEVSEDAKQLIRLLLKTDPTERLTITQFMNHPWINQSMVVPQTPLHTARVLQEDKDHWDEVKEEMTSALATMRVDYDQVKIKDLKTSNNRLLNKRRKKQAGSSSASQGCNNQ
Sequence of Calcium/calmodulin-dependent protein kinase type II subunit delta (Homo sapiens) (Q13557 whole entry): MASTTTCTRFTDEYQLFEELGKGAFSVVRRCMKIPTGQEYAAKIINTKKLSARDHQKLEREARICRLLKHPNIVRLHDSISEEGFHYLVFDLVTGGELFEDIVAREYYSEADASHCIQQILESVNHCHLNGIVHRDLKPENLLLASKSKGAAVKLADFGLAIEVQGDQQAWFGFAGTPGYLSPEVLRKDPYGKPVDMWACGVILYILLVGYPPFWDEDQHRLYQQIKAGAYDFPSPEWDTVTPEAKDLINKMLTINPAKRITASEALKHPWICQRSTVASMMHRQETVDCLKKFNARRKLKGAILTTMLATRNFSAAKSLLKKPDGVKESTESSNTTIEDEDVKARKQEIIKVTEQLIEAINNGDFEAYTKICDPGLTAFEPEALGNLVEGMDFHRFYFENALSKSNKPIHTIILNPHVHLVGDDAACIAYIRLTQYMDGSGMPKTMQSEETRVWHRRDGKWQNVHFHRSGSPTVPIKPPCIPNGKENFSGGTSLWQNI
Sequence of Serine/threonine-protein kinase TNNI3K (Homo sapiens) (Q59H18 whole entry): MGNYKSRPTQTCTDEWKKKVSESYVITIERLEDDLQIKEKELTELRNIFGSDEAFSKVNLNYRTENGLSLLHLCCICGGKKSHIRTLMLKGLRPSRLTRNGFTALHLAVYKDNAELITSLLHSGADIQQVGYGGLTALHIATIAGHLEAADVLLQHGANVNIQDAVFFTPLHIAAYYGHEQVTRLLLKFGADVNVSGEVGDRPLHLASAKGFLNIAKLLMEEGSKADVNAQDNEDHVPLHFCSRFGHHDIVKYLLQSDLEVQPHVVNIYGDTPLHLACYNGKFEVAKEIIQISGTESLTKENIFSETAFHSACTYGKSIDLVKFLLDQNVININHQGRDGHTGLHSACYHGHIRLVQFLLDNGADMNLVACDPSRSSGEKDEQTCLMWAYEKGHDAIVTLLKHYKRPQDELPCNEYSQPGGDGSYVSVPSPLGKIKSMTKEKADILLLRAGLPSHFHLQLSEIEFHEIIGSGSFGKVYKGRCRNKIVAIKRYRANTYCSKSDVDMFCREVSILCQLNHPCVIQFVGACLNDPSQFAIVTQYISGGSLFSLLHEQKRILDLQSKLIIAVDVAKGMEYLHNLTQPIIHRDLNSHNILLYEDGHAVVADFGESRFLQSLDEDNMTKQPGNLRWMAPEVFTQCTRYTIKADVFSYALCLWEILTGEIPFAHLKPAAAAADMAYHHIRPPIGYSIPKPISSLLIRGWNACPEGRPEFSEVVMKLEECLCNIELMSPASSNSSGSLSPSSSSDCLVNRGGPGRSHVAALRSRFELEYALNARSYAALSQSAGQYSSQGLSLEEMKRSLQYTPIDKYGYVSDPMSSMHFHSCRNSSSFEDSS
Sequence of SRSF protein kinase 3 (Homo sapiens) (Q9UPE1 whole entry): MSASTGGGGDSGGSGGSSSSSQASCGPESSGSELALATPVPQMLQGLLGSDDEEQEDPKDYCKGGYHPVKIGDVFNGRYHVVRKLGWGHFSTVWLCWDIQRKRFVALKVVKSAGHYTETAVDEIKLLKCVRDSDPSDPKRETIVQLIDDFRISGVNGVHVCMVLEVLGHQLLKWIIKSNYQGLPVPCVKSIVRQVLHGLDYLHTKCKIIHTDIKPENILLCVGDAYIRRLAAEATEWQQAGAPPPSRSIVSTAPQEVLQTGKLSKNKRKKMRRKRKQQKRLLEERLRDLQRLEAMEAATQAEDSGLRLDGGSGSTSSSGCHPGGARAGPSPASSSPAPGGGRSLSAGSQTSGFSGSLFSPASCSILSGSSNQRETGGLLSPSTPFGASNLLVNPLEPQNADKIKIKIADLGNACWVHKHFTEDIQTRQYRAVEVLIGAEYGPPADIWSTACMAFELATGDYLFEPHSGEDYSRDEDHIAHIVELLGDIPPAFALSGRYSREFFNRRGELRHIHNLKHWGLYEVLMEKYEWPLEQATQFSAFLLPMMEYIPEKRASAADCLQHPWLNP
Sequence of Cysteinyl leukotriene receptor 1 (Homo sapiens) (Q9Y271 whole entry): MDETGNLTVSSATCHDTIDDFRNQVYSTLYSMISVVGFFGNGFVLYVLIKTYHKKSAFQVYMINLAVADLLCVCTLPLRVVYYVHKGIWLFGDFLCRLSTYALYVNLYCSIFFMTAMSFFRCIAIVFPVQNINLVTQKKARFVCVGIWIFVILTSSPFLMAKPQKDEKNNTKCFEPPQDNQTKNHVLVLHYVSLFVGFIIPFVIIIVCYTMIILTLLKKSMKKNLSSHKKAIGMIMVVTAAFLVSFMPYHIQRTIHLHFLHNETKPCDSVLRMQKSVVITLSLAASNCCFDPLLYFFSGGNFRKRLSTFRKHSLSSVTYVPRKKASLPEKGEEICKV
Sequence of Rho-associated protein kinase 2 (Homo sapiens) (O75116 whole entry, looked up): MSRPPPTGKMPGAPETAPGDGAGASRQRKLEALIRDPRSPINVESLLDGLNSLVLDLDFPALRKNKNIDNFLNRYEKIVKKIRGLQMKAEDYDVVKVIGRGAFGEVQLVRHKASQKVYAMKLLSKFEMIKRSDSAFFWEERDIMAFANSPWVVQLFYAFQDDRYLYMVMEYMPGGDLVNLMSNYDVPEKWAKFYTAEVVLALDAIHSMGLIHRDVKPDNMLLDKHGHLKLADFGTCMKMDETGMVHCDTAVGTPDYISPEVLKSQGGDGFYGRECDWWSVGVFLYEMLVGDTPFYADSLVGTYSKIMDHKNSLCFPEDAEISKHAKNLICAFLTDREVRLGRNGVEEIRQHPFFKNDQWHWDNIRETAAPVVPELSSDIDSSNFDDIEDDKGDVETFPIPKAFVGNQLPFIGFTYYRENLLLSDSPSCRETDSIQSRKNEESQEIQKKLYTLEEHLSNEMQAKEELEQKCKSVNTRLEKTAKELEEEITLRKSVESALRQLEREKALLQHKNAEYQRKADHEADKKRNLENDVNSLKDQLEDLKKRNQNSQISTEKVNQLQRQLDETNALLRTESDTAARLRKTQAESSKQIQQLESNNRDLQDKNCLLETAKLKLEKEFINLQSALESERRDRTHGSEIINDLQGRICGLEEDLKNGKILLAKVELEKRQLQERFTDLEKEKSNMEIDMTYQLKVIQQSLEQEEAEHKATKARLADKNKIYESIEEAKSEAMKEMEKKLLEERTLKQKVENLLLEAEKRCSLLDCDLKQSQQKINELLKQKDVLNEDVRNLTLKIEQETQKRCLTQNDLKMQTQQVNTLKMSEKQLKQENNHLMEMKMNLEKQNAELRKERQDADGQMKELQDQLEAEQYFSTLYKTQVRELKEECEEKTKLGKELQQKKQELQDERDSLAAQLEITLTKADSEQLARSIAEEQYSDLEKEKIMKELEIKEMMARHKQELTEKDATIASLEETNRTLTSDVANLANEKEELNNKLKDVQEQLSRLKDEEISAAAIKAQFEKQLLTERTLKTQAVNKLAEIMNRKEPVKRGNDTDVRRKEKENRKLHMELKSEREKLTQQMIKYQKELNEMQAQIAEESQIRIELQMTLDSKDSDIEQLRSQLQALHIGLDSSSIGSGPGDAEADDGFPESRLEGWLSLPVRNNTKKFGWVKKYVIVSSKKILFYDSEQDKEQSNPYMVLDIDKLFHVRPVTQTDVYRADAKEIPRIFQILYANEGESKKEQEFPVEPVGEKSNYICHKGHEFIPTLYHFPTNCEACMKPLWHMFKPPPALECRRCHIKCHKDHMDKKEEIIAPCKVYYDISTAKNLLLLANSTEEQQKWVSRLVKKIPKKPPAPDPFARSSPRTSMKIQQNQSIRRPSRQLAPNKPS
Sequence of G protein-coupled receptor kinase 6 (Homo sapiens) (P43250 whole entry, looked up, the tested form may be a part): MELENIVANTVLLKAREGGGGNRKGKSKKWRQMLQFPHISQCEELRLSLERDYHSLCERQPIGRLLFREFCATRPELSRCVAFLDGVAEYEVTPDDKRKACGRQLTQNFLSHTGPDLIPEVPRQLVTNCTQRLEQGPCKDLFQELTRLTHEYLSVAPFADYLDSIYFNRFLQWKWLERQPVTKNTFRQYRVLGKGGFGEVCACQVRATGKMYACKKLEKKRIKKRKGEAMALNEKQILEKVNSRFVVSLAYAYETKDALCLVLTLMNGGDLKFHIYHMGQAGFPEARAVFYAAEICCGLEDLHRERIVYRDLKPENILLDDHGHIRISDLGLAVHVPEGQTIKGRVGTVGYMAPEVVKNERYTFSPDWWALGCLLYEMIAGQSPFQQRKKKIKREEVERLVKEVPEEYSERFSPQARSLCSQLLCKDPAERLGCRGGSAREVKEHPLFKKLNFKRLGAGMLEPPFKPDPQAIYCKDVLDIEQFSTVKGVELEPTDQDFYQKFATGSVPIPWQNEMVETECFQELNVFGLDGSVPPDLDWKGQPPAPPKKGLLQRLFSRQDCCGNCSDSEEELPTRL
Sequence of Melanocyte-stimulating hormone receptor (Mus musculus) (Q01727 whole entry, looked up): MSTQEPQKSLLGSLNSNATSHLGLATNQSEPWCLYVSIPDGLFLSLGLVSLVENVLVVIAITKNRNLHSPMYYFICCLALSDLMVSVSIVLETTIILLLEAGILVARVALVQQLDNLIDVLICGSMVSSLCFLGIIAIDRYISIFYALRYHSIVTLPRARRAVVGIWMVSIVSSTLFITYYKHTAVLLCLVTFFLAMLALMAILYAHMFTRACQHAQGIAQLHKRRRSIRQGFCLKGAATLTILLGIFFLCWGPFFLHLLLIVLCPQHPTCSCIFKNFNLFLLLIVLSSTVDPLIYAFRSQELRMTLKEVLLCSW

CN(C)C(=O)Cn1cc(-c2nc(C3(c4ccc(-c5cnc(N)nc5)cc4)CC3)no2)cn1 [BI 0153]
inactive: [1] 100%

CN(C)C(=O)Cn1cc(-c2nc([C@@](C)(c3ccc(-c4cnc(N)nc4)cc3)C3CC3)no2)cn1 [BI 665915]
inactive: [2] 103% | [3] 105% | [4] 108% | [5] 101% | [6] 101% | [7] 102% | [8] 111% | [9] 109% | [10] 94.5% | [11] 99% | [12] 102% | [13] 96% | [14] 98.5% | [15] 99.5% | [16] 102% | [17] 96.5% | [18] 100% | [19] 99% | [20] 100%
